According to ChEMBL document CHEMBL5104092, “An insight into the recent development of the clinical candidates for the treatment of malaria and their target proteins” (Eur J Med Chem, 2021):
Converted amounts (≈) assume the structure as drawn.

What was measured:
[1] = Drug elimination in human urine assessed as unchanged fraction; format: ADME; details: read-out: Drug excretion
Plasmodium falciparum [2] = test: In vivo antimalarial activity against Plasmodium falciparum infected in NMRI mouse; format: functional
[3] = Dissociation constant, pKa of compound; format: physicochemical
Plasmodium falciparum [4] = test: Antimalarial activity against Plasmodium falciparum assessed as increase in parasite swelling diameter at ring stage after 2 hrs by time-lapse live cell imaging (reference value: […]); format: functional
[5] = Cytotoxicity against African green monkey Vero cells; format: toxicity, cell-based, Chlorocebus sabaeus
Plasmodium falciparum [6] = test: Antimalarial activity against chloroquine-sensitive Plasmodium falciparum D6 assessed as parasitic LDH activity incubated for 72 hrs by malstat reagent method; format: functional, organism-based; details: D6, 72 h
Plasmodium falciparum [7] = test: Antimalarial activity against chloroquine-sensitive Plasmodium falciparum W2 assessed as parasitic LDH activity incubated for 72 hrs by malstat reagent method; format: functional, organism-based; details: W2, 72 h
Plasmodium yoelii [8] = test: In vivo antimalarial activity against chloroquine resistant Plasmodium yoelii N-67 infected in Swiss albino mouse assessed as suppression of parasitemia at 10 mg/kg relative to control; format: functional
Plasmodium falciparum [9] = test: Antimalarial activity against chloroquine-sensitive Plasmodium falciparum 3D7 by Giemsa staining method; format: functional, organism-based
Plasmodium falciparum [10] = test: Antimalarial activity against Plasmodium falciparum Dd2; format: functional, organism-based
HepG2 = test: Cytotoxicity against human HepG2 cells; format: functional, cell-based
Plasmodium yoelii [11] = test: In vivo antimalarial activity against Plasmodium yoelii infected in mouse; format: functional
[12] = Inhibition of Plasmodium falciparum DHODH expressed in Escherichia coli BL21 cells using L-dihydroorotate as substrate by DCIP staining method
Plasmodium falciparum [13] = test: Antimalarial activity against Plasmodium falciparum 3D7 incubated for 72 hrs by SYBR-green method; format: functional, organism-based; details: 3D7, 72 h
[14] = Inhibition of Plasmodium falciparum DHODH expressed in Escherichia coli BL21 (DE3) cells by DCIP staining method
Plasmodium falciparum [15] = test: Antimalarial activity against chloroquine sensitive Plasmodium falciparum 3D7 incubated for 72 hrs by malaria SYBR green I nucleic acid staining dye based fluorescence assay; format: functional, organism-based; details: 3D7, 72 h
Plasmodium falciparum [16] = test: Antimalarial activity against chloroquine resistant Plasmodium falciparum K1 incubated for 72 hrs by malaria SYBR green I nucleic acid staining dye based fluorescence assay; format: functional, organism-based; details: K1, 72 h
Plasmodium falciparum [17] = test: Antimalarial activity against Plasmodium falciparum K1; format: functional, organism-based
Plasmodium falciparum [18] = test: Antimalarial activity against Plasmodium falciparum NF54; format: functional, organism-based
[19] = Inhibition of Plasmodium falciparum recombinant DHODH incubated for 5 mins by microplate reader method
Plasmodium falciparum [20] = test: Antiplasmodial activity against chloroquine sensitive Plasmodium falciparum NF54 by parasite lactate dehydrogenase assay; format: functional, organism-based
Plasmodium falciparum [21] = test: Antimalarial activity against chloroquine resistant Plasmodium falciparum Dd2 incubated for 48 hrs by SYBR green I fluorescence based assay; format: functional, organism-based; details: Dd2, 48 h
Plasmodium falciparum [22] = test: Antimalarial activity against chloroquine resistant Plasmodium falciparum K1 incubated for 48 hrs by SYBR green I fluorescence based assay; format: functional, organism-based; details: K1, 48 h
Plasmodium falciparum [23] = test: Antimalarial activity against chloroquine sensitive Plasmodium falciparum NF54 incubated for 48 hrs by SYBR green I fluorescence based assay; format: functional, organism-based; details: NF54, 48 h
Plasmodium falciparum [24] = test: Antimalarial activity against chloroquine resistant Plasmodium falciparum W2 incubated for 48 hrs by SYBR green I fluorescence based assay; format: functional, organism-based; details: W2, 48 h
Plasmodium falciparum [25] = test: Antimalarial activity against multidrug resistant Plasmodium falciparum Dd2 incubated for 72 hrs by malaria SYBR green I nucleic acid staining dye based fluorescence assay; format: functional, organism-based; details: Dd2, 72 h
Plasmodium berghei = test: In vivo antimalarial activity against Plasmodium berghei infected in Balb/C mouse model assessed as parasite clearance at 30 mg/kg, po administered every 24 hrs for 3 days followed by chloroquine addition measured on day 4 by flow cytometric analysis relative to control; format: functional; details: time 4 day

SMILES: CCN(CC)CCCC(C)Nc1cc(OC)cc2cccnc12 (stereo not given) [PAMAQUINE]
- dose excreted [1]: < 1%

SMILES: C[C@H]1Cc2c([nH]c3cc(Cl)c(F)cc23)[C@@]2(N1)C(=O)Nc1ccc(Cl)cc12 [CIPARGAMIN]
- ED90 (Plasmodium falciparum [2]): 2.7 mg/kg
- pKa [3]: 4.6

SMILES: CC(C)c1nc2ccccc2n1CC(=O)Nc1c(-c2ccc(Cl)cc2F)c(C(F)(F)F)nn1C
- Activity (Plasmodium falciparum [4]): 4.6 µm

SMILES: c1cc(N2CCOCC2)nc(NCCNc2nc(N3CCOCC3)nc(N3CCOCC3)n2)n1
- IC50 [5]: > 10100 nM
- IC50 (Plasmodium falciparum [6]): 1180 nM
- IC50 (Plasmodium falciparum [7]): 1320 nM

SMILES: CC(C)C[C@@H](CN1CCN(C)CC1)Nc1ccnc2cc(Cl)ccc12.Cl
- Activity (Plasmodium yoelii [8]): 100%

SMILES: CNNc1nc(NNC)nc(Nc2nc(-c3ccc(Cl)cc3Cl)cs2)n1
- IC50 (Plasmodium falciparum [9]): 10 µg/mL (≈ 24.3 µM)

SMILES: COc1cc2[nH]c(C)c(-c3ccc(Oc4ccc(OC(F)(F)F)cc4)cc3)c(=O)c2cc1Cl
- EC50 (Plasmodium falciparum [10]): 2.5 nM
- IC50 (HepG2): > 10000 nM
- ED90 (Plasmodium yoelii [11]): 0.02 mg/kg

SMILES: Cc1nc(Nc2ccc(S(F)(F)(F)(F)F)cc2)c2c(C)noc2n1
- IC50 [12]: 36 nM
- EC50 (Plasmodium falciparum [13]): 17 nM

SMILES: COC(=O)[C@]1(C)C[C@H](c2ccccc2)N2[C@@H](C)CC(=O)N21
- IC50 [14]: 2900 nM

SMILES: CC1CCN(C[C@@H](CC2CCCCC2)Nc2ccnc3cc(Cl)ccc23)CC1
- IC50 (Plasmodium falciparum [15]): 938 nM
- IC50 (Plasmodium falciparum [16]): 7 nM

SMILES: c1cc([C@H]2CC[C@]3(CC2)OO[C@]2(O3)C3CC4CC(C3)CC2C4)ccc1OCCN1CCOCC1 [ARTEFENOMEL]
- IC50 (Plasmodium falciparum [17]): 3.8 nM
- IC50 (Plasmodium falciparum [18]): 4.6 nM
- pKa [3]: 7

SMILES: c1c2c(cc3c1OCO3)-c1cc3ccc4c(c3c[n+]1CC2)OCO4 [COPTISINE]
- IC50 [19]: 1830 nM

SMILES: CCOC(=O)C(=CNc1cccc(N(C)C)c1)C(=O)OCC
- IC50 (Plasmodium falciparum [20]): 26000 nM

SMILES: C[C@H]1[C@H](N2CCNCC2)O[C@@H]2O[C@]3(C)CC[C@H]4[C@H](C)CC[C@@H]1[C@@]24OO3
- IC50 (Plasmodium falciparum [21]): 1.7 nM
- IC50 (Plasmodium falciparum [22]): 1.9 nM
- IC50 (Plasmodium falciparum [23]): 3.1 nM
- IC50 (Plasmodium falciparum [24]): 1.4 nM

SMILES: CCN(CC)CCCC(C)Nc1ccnc2cc(Cl)ccc12 (stereo not given) [CHLOROQUINE]
- EC50 (Plasmodium falciparum [25]): 165 nM

SMILES: CN1CCN(c2nc(Cl)cc(NCCNc3ccnc4cc(Cl)ccc34)n2)CC1
- Activity (Plasmodium berghei): 93.9%

SMILES: Cc1nc(Nc2ncc(N3CCN(C)[C@H](C)C3)c(Nc3cc(C)n(C)n3)n2)cc(C2CC2)c1F [SUTIDIAZINE]
- IC50 (Plasmodium falciparum [17]): 15 nM
- IC50 (Plasmodium falciparum [18]): 9 nM
- pKa [3]: 8.4

SMILES: CC(C)(C)c1cc(O)c(CN)c(C(C)(C)C)c1
- IC50 (Plasmodium falciparum [17]): 9.6 nM
- IC50 (Plasmodium falciparum [18]): 91.5 nM
- pKa [3]: 7.2

SMILES: COC(=O)N1CCN(C(=N)c2cccc(NC(=O)Nc3ccc(S(=O)(=O)NCc4ccc(S(N)(=O)=O)cc4)cc3)c2)CC1
- EC50 (Plasmodium falciparum [17]): 5 nM
- EC50 (Plasmodium falciparum [18]): 2 nM

SMILES: C[C@H]1[C@H](Nc2ccc(F)cc2)O[C@@H]2O[C@]3(C)CC[C@H]4[C@H](C)CC[C@@H]1[C@@]24OO3
- IC50 (Plasmodium falciparum [21]): 11.1 nM
- IC50 (Plasmodium falciparum [22]): 0.6 nM
- IC50 (Plasmodium falciparum [23]): 1.3 nM
- IC50 (Plasmodium falciparum [24]): 3 nM
